Tested on: actin cytoskeleton and peripheral ER network
Experiment: Actin cytoskeleton and peripheral ER network in yeast
Assay type: cell-based
Settings: added after mfisi-1 treatment
Description: These structures are routinely examined in yeast mitochondrial morphology mutants as a test for the specificity of the mitochondrial phenotype.

| Structure (SMILES) | effect on actin cables and patches | effect on mitochondrial nets |
| --- | --- | --- |
| C/C1=C/C(=O)O[C@@H]2C[C@@H](CC[C@H](C)/C=C\C=C\CC1)O[C@@](O)([C@@H]1CSC(=O)N1)C2 [Latrunculin-A] | complete disruption of actin cables and patches | caused mitochondrial nets to collapse and aggregate |

Tested on: mammalian COS cells
Experiment: Mitochondrial fragmentation induced by staurosporine (STS) in COS cells
Assay type: cell-based
Settings: COS cells stimulated with STS; mfisi-1 at 50 μM; n=100
Description: As indicated above, we observed that mfisi-1 causes changes in mitochondrial morphology in mammalian cells that are consistent with a block in mitochondrial fission. Thus, we examined the effects of mfisi-1 on mitochondrial fragmentation caused by the intrinsic apoptotic stimulus staurosporine (STS) in mammalian COS cells. […] These observations indicate that mfisi-1 retards apoptosis-stimulated Drp1-dependent mitochondrial fission.

| Structure (SMILES) | % collapsed nets | % fragmented | % loose nets | % reticular |
| --- | --- | --- | --- | --- |
| CN[C@@H]1C[C@H]2O[C@@](C)([C@@H]1OC)n1c3ccccc3c3c4c(c5c6ccccc6n2c5c31)C(=O)NC4 [STS, staurosporine, reference compound] | 0% | 86% | 0% | 14% |

Tested on: wild type yeast cells
Experiment: Mitochondrial morphology in yeast (secondary screen, mitochondrial targeted GFP)
Assay type: cell-based, S. cerevisiae
Settings: Structure Function Analysis of Compound A1, yeast
Description: Secondary screens: Compounds identified in the primary growth assay-based screens outlined above are screened secondarily by examining their effects on mitochondrial morphology. We use the steady state structure of mitochondria as an indicator of the relative rates of mitochondrial fission and fusion in cells. […] Mitochondria are visualized using a mitochondrial targeted GFP that is efficiently targeted to both wild type and respiratory deficient mitochondria (Tieu et al., 2000 The Journal of Cell Biology 151, 353-365.).
All compounds identified in the primary growth assay-based screens outlined above were screened secondarily by examining their effects on mitochondrial morphology in yeast. From previous work, we know that the steady state structure of mitochondria is an indicator of the relative rates of mitochondrial fission and fusion in cells (FIG. 7). Specifically, net-like structures indicate a block in fission, and fragmented mitochondrial structures indicate a block in fusion. […] In this secondary assay, small molecules were judged to be a hit if they produced a mutant phenotype in greater than 5% of the cell population.
To determine what structural features are important for the effects of mfisi-1 on mitochondrial fission, we identified structurally related molecules using a chemoinformatics approach. We utilized web-based ChemNavigator to search available public and commercial compound databases for small molecules that uniquely represented key structural features of mfisi-1. We tested a total of 15 small molecules related to mfisi-1 for their effects on mitochondrial morphology in yeast, each at a concentration of 50 μM (Table 3).

| Structure (SMILES) | % fragmented | % nets | % reticular |
| --- | --- | --- | --- |
| C=CCSc1nc2ccccc2c(=O)n1Cc1ccccc1 [drawing 17] | 69% | 0% | 31% |
| Cc1cccc(-n2c(S)nc3ccccc3c2=O)c1 [drawing 15] | 0% | 0% | 100% |
| Cc1ccccc1-n1c(S)nc2ccccc2c1=O [drawing 8] | 8% | 29% | 63% |
| COc1cc(-n2c(SC)nc3ccccc3c2=O)c(Cl)cc1Cl [drawing 9] | 11% | 7% | 82% |
| CCSc1nc2ccccc2c(=O)n1-c1cccc(C)c1 [drawing 12] | 51% | 1% | 48% |
| COc1ccccc1-n1c(S)nc2ccccc2c1=O [drawing 16] | 32% | 0% | 68% |
| O=c1c2ccccc2nc2n1CCS2 [drawing 19] | 7.3% | 0% | 92.7% |
| C=CCSc1nc2ccccc2c(=O)n1-c1ccccc1OC [drawing 18] | 3.2% | 0% | 96.8% |
| C=CCSc1nc2ccccc2c(=O)n1-c1cccc(C)c1 [drawing 13] | 8% | 1% | 91% |
| CSc1nc2ccccc2c(=O)n1-c1cccc(C)c1 [drawing 14] | 6% | 0% | 94% |
| O=c1c2ccccc2nc(S)n1Cc1ccccc1 | 6% | 5% | 89% |
| O=C(O)CSc1nc2ccccc2c(=O)n1-c1ccccc1 [drawing 11] | 8% | 5% | 87% |

Same assay, conditions: yeast, each at a concentration of 50 μM

| Structure (SMILES) | % net-like structures |
| --- | --- |
| C=CCSc1nc2ccccc2c(=O)n1-c1ccccc1OC [2-Allylsulfanyl-(2-methoxy-phenyl)-3H-quinazolin-4-one] | 0% |
| COc1cc(-n2c(SC)nc3cc(Cl)ccc3c2=O)c(Cl)cc1Cl [mfisi-1.1, 7-chloro-3-(2,4-Dichloro-5-methoxy-phenyl)-2-methylsulfanyl-3H-quinazolin-4-one] | 7% |
| C=CCSc1nc2ccccc2c(=O)n1Cc1ccccc1 [2-Allylsulfanyl-3-benzyl-3H-quinazolin-4-one] | 0% |
| COc1ccccc1-n1c(S)nc2ccccc2c1=O [2-Mercapto-3-(2-methoxy-phenyl)-3H-quinazolin-4-one] | 0% |
| Cc1cccc(-n2c(S)nc3ccccc3c2=O)c1 [2-Mercapto-3-m-tolyl-3H-quinazolin-4-one] | 0% |
| C=CCSc1nc2ccccc2c(=O)n1-c1cccc(C)c1 [2-Allylsulfanyl-3-m-tolyl-3H-quinazolin-4-one] | 1% |
| COc1cc(-n2c(SC)nc3ccccc3c2=O)c(Cl)cc1Cl [mfisi-1.2, 3-(2,4-Dichloro-5-methoxy-phenyl)-2-methylsulfanyl-3H-quinazolin-4-one] | 7% |
| CSc1nc2ccccc2c(=O)n1Cc1ccccc1 [3-Benzyl-2-methylsulfanyl-3H-quinazolin-4-one] | 5% |
| CSc1nc2cc(Cl)ccc2c(=O)n1-c1cc(OC(C)C)c(Cl)cc1Cl [mfisi-1.3, 7-chloro-3-(2,4-Dichloro-5-isopropoxy-phenyl)-2-methylsulfanyl-3H-quinazolin-4-one] | 2% |
| CCSc1nc2ccccc2c(=O)n1-c1cccc(C)c1 [2-Ethylsulfanyl-3-m-tolyl-3H-quinazolin-4-one] | 2% |
| Cc1ccccc1-n1c(S)nc2ccccc2c1=O [2-Mercapto-3-o-tolyl-3H-quinazolin-4-one] | 30% |
| COc1cc(-n2c(SC)nc3ccc(Cl)cc3c2=O)c(Cl)cc1Cl [mfisi-1.4, 6-chloro-3-(2,4-Dichloro-5-methoxy-phenyl)-2-methylsulfanyl-3H-quinazolin-4-one] | 2% |
| O=C(O)CSc1nc2ccccc2c(=O)n1-c1ccccc1 [(4-oxo-3-phenyl-3,4-dihydro-quinazolin-2-ylsulfanyl)-acetic acid] | 5% |
| CSc1nc2ccccc2c(=O)n1-c1cccc(C)c1 [2-Methylsulfanyl-3-m-tolyl-3H-quinazolin-4-one] | 0% |
| O=c1c2ccccc2nc2n1CCS2 [2,3-Digydor-thiazolo[2,3-b]quinazolin-4-one] | 0% |
